This is an account of results in article PMC12346198 (Cancers, 2025).

A word on the Cmax: it is the highest concentration seen after dosing. As usually defined, the Tmax is the time at which the peak concentration occurs. Broadly, the thermodynamic solubility is solubility found after equilibrating the solid with the medium.

Series [1] can be described thus: Single-dose IV and PO pharmacokinetics in mice. The note with it: for AUC: analyte = dosed compound; for Cmax: read-out: Cmax, Geo Mean; for Tmax: read-out: Tmax, Geo Mean. It is filed as in vivo, male C57BL/6 mice. The method, then: The in-life study and quantitative analysis of plasma samples using LC/MS were performed at Charles River Laboratories, Inc. (Wilmington, MA, USA).

Series [2] in a line: Thermodynamic solubility in fasted-state simulated intestinal fluid (FaSSIF). It is filed as physicochemical. The note with it: pH 6.5, LLOQ < 1.56 µM. Here is the method: The thermodynamic solubility analysis in biological media and the quantitative analysis of samples were performed according to the standard protocol at WuXi AppTec (Shanghai, China).
The nature of series [3]: Pharmacokinetic modeling of valine pro-drug conversion to parent. It is filed as in vivo, mice. From the text:
A total of 36 mice with available PK data were included for non-linear mixed-effects analysis using NONMEM (version 7.5.0, ICON Development Solutions, Ellicott City, MD, USA), implementing the first-order conditional estimation with interaction (FOCE-I). R (version 4.2.0, R Foundation for Statistical Computing, Vienna, AUT, http://www.r-project.org) was used for visual diagnostics. […] The analyte (valine conjugate and parent compound) plasma concentration–time data were confirmed to have a biphasic distribution and elimination and were therefore fit separately to a linear two-compartment model with a depot for oral administration. Each model was parametrized in terms of clearance (CL), the volume of distribution of the central compartment (V1), intercompartmental clearance (Q), and the volume of the peripheral compartment (V3). Interindividual variability (IIV) for each parameter was assumed to be log-normally distributed, and residual variability (RUV) was described with a proportional error model. The PK parameter estimates from these independent models (parent compound or valine conjugate) were used as initial estimates for a combined model describing the conversion and disposition of the valine conjugate to the parent drug and associated metabolites. The model estimated the fraction of pro-drug converted to parent drug (Fm), which was used to calculate the first-order rate constant of metabolite formation (Kmet) = Fm × Kel. This rate constant was used to calculate the half-life of the conversion process and the amount of metabolite formed at complete conversion. The rate of metabolite formation was then calculated as the ratio of the amount of metabolite formed to the time required for complete conversion (~5 half-lives), as detailed in Figures S8–S11.

The mark [4] stands for this setting: PO, 40 mg/kg (valine conjugates 40 mg/kg EQV).

Like-named read-outs stand apart in the source and are kept apart here. A value given as a limit tells only on which side of the number the result lay.

For `CC(C)[C@H](N)C(=O)Oc1ccc(Cl)cc1C(=O)Nc1ccc(C(F)(F)F)cc1` [valine–compound #11], the “HL_Lambda_z, Geo Mean” value in series [1] (IV, 2 mg/kg (valine conjugates 2 mg/kg EQV)) stood at 1.94 h; in series [1] (setting [4]) it was 5.77 h. In addition, the “IV: Clobs, Geo Mean” value in series [1] (IV, 2 mg/kg (valine conjugates 2 mg/kg EQV), non-compartmental analysis) came out at 0.004 L/h. The “PO: Cl_Fobs, Geo Mean” value in series [1] (setting [4]) amounted to 0.59 L/h. Moreover, the AUC in series [1] (male, C57BL/6, mouse, plasma, iv, 2 mg/kg, IV, 2 mg/kg (valine conjugates 2 mg/kg EQV), non-compartmental analysis, read-out: AUCall, Geo Mean) is 36.1 µM·h; in series [1] (male, C57BL/6, mouse, plasma, po, 40 mg/kg, PO, 40 mg/kg (valine conjugates 40 mg/kg EQV), non-compartmental analysis, read-out: AUCall, Geo Mean), 4.17 µM·h; in series [1] (male, C57BL/6, mouse, plasma, po, 40 mg/kg, single PO dose, 40 mg/kg or molar equivalent, read-out: AUCall following an oral dose), 4.17 µM·h. Further, the Cmax in series [1] (male, C57BL/6, mouse, plasma, iv, 2 mg/kg, IV, 2 mg/kg (valine conjugates 2 mg/kg EQV)) stood at 20.2 µM; in series [1] (male, C57BL/6, mouse, plasma, po, 40 mg/kg, PO, 40 mg/kg (valine conjugates 40 mg/kg EQV)), 0.99 µM. The Tmax stood at 23.4 min in series [1] (male, C57BL/6, mouse, plasma, IV, 2 mg/kg (valine conjugates 2 mg/kg EQV)) and 60 min in series [1] (male, C57BL/6, mouse, plasma, PO, 40 mg/kg (valine conjugates 40 mg/kg EQV)). In addition, the clearance in series [1] (male, C57BL/6, mouse, plasma, single IV dose, 2 mg/kg or molar equivalent, read-out: Systemic clearance following an IV dose (converted)) is 0.0667 mL/min. In series [2], the thermodynamic solubility is under 1.56 µM. Also, the k el in series [3] (C57BL/6, mouse, plasma, model estimate, read-out: Kel, elimination rate constant of valine conjugate (converted)) is 0.00853 s⁻¹. Besides, the “Kmet, rate constant of conversion to parent compound” value in series [3] (Kmet = Fm × Kel) was 11.9 h⁻¹. For the same compound, in series [3] (two-compartment model estimate), the “Fraction of pro-drug converted to parent (Fm)” value was 39%.
